Experimental findings from paper PMC11040104, “The two C. elegans class VI myosins, SPE-15/HUM-3 and HUM-8, share similar motor properties, but have distinct developmental and tissue expression patterns” (Frontiers in Physiology, 2024) are described below.

Assay [1] has as its target T1, human MYO6 (Homo sapiens, UniProt Q9UM54).
T1 construct: with Actin, alpha skeletal muscle (rabbit, Oryctolagus cuniculus); Calmodulin (light chain)
Description: stopped-flow pyrene-actin, ADP/ATP competition. Conditions: bound to pyrene-labelled rabbit F-actin; competition with ATP; pH 7.0, 20 °C, 25 mM KCl, 5 mM MgCl2, probably misprint for µM; read-out: affinity for ADP. It counts as binding.

The target in assay [2] is T2, HUM-8 (Caenorhabditis elegans, UniProt U4PBY2).
T2 construct: motor-neck domain residues 61-904, N-terminal 6xHis, C-terminal GSG linker + RGSIDTWV tag kept; co-expressed with human calmodulin in ExpiSf9; with Actin, alpha skeletal muscle (rabbit, Oryctolagus cuniculus); Calmodulin (human light chain, co-expressed)
T2 sequence (U4PBY2 61-904): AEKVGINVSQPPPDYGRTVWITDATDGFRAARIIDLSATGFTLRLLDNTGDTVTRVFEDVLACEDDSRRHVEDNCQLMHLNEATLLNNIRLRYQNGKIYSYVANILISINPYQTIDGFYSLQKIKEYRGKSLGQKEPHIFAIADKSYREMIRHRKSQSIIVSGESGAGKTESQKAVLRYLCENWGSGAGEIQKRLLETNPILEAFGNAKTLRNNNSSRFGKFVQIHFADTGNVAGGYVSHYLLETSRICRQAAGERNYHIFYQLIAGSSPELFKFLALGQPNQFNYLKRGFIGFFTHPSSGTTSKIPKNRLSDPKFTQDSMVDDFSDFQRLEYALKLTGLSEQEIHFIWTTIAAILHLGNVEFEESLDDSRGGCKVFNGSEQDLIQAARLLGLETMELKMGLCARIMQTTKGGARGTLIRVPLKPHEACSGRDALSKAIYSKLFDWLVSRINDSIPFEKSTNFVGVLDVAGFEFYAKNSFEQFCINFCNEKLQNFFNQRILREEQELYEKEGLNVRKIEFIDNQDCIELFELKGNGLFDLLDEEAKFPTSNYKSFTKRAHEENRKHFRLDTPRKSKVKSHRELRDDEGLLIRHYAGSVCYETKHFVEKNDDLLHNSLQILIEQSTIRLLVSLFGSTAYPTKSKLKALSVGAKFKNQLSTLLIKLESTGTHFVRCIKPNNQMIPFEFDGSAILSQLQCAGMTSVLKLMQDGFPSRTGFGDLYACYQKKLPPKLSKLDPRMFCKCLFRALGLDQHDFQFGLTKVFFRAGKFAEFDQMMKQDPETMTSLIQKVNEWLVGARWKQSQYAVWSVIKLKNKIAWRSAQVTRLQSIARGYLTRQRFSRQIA
Description: stopped-flow pyrene-actin, ADP/ATP competition. It counts as binding. Conditions: bound to pyrene-labelled rabbit F-actin; competition with ATP; pH 7.0, 20 °C, 25 mM KCl, 5 mM MgCl2, probably misprint for µM; read-out: affinity for ADP.

The target in assay [3] is T3, SPE-15/HUM-3 (Caenorhabditis elegans, UniProt Q9TZI9).
T3 construct: motor-neck domain residues 1-841, N-terminal 6xHis, C-terminal GSG linker + RGSIDTWV tag kept; co-expressed with human calmodulin in ExpiSf9; with Actin, alpha skeletal muscle (rabbit, Oryctolagus cuniculus); Calmodulin (human light chain, co-expressed)
Description: stopped-flow pyrene-actin, ADP/ATP competition. Conditions: bound to pyrene-labelled rabbit F-actin; competition with ATP; pH 7.0, 20 °C, 25 mM KCl, 5 mM MgCl2, probably misprint for µM; read-out: affinity for ADP. It counts as binding.

The target in assay [4] is T1, human MYO6. Description: stopped-flow, ATP-induced dissociation of pyrene-actin.myosin. It counts as binding. Conditions: bound to pyrene-labelled rabbit F-actin, pH 7.0, 20 °C, 25 mM KCl, 5 mM MgCl2, not an affinity.
The target of assay [5] is T2, HUM-8. The description is as above. Conditions: bound to pyrene-labelled rabbit F-actin, pH 7.0, 20 °C, 25 mM KCl, 5 mM MgCl2, not an affinity. It counts as binding.
The target of assay [6] is T3, SPE-15/HUM-3. The description is as above. Conditions: bound to pyrene-labelled rabbit F-actin, pH 7.0, 20 °C, 25 mM KCl, 5 mM MgCl2, not an affinity. It counts as binding.
Assay [7] deals with rabbit muscle actin, pyrene-labelled (F-actin) (rabbit) (UniProt P68135).
The target is the same in assay [8]. Description: other fluorescence titration; stopped-flow; amplitude of ATP-induced dissociation of pyrene-actin.myosin against myosin concentration, quadratic fit; 20°C, 20 mM MOPS pH 7.0, 25 mM KCl, 5 mM MgCl2, 1 mM DTT.

T1 sequence (Q9UM54 1-840 limits assumed): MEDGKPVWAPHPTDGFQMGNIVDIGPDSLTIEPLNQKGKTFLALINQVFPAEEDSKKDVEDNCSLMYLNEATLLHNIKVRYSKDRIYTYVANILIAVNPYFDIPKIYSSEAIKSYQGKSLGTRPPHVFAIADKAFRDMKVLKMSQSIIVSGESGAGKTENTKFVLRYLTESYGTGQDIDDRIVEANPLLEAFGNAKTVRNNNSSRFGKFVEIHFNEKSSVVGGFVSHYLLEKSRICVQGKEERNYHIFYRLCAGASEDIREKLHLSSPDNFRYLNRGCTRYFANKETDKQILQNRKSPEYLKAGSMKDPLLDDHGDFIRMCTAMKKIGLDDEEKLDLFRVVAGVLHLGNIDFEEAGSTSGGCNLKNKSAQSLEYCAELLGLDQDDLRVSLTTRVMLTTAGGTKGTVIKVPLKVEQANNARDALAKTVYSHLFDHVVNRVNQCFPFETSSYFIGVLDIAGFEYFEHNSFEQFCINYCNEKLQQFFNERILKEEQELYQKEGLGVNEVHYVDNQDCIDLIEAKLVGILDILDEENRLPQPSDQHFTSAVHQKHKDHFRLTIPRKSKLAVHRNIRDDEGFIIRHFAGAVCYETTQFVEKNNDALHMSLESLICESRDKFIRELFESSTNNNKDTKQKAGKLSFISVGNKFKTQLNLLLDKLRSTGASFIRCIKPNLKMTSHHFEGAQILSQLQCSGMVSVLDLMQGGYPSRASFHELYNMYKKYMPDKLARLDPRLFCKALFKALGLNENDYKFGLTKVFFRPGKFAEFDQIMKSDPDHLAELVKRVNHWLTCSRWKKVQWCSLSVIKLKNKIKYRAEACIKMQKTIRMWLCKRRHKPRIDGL
Chain of human MYO6 motor domain (Q9UM54 whole entry, the tested form may be a part): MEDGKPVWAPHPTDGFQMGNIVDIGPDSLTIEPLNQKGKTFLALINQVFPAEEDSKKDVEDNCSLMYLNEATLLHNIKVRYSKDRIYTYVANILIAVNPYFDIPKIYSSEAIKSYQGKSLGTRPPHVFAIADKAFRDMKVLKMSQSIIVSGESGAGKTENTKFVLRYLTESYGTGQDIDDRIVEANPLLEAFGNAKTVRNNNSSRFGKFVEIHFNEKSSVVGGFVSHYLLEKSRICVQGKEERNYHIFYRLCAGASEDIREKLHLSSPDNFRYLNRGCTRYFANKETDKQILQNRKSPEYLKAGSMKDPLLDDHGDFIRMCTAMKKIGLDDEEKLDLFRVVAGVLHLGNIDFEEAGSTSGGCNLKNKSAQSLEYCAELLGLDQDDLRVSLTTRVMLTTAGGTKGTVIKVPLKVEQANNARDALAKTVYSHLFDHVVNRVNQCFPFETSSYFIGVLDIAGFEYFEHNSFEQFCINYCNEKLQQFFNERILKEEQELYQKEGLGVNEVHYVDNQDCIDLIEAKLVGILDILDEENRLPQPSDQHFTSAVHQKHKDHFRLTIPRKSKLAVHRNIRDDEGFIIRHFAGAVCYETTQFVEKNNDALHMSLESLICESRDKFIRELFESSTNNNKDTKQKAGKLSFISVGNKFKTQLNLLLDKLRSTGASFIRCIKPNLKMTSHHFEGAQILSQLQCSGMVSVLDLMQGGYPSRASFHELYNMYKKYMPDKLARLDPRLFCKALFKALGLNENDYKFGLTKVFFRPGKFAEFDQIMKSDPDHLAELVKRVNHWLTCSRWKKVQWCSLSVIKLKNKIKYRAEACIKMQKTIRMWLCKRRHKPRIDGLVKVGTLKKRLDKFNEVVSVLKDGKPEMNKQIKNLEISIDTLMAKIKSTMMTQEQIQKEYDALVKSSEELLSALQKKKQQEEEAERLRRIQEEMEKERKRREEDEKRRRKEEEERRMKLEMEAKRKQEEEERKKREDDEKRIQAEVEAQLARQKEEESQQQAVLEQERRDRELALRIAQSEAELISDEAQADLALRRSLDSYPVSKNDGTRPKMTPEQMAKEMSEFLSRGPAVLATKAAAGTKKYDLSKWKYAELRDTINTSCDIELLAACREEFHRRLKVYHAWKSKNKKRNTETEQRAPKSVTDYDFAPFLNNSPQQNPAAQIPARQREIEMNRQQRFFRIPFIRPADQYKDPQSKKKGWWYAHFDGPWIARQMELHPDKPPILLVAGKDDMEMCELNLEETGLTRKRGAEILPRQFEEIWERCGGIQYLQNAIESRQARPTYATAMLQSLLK
T3 sequence (Q9TZI9 1-841): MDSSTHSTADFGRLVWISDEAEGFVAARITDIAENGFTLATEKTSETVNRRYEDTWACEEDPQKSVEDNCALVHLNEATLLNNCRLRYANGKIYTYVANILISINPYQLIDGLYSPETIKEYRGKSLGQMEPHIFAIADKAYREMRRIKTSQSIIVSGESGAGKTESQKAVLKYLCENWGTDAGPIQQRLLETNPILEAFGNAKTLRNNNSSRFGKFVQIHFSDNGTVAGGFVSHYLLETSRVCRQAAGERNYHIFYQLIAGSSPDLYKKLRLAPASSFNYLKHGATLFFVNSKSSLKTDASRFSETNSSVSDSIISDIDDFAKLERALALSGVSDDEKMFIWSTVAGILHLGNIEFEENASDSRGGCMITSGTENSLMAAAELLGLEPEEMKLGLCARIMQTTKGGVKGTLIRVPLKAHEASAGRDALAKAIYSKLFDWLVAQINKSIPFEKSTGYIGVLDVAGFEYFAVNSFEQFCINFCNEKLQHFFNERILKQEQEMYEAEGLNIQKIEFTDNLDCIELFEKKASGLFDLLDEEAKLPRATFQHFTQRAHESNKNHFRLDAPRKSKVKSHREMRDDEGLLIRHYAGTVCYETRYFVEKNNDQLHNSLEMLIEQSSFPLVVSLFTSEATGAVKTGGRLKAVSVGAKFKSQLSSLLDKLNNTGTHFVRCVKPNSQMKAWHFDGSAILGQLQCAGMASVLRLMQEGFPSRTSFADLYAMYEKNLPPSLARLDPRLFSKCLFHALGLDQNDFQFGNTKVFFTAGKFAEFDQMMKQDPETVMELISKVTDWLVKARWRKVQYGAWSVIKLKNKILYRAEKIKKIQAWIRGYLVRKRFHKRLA

Turning to `Nc1ncnc2c1ncn2[C@@H]1O[C@H](COP(=O)(O)OP(=O)(O)O)[C@@H](O)[C@H]1O` [ADP], the figures for the Kd at human MYO6 [1], on HUM-8 [2] and at SPE-15/HUM-3 [3] were 6000 ± 800 µM, 20000 ± 2000 µM and 18000 ± 4000 µM, respectively.

On to `Nc1ncnc2c1ncn2[C@@H]1O[C@H](COP(=O)(O)OP(=O)(O)OP(=O)(O)O)[C@@H](O)[C@H]1O` [ATP], for which the results for the “apparent second order rate constant for ATP binding” value at human MYO6 [4], on HUM-8 [5] and at SPE-15/HUM-3 [6] were 5000 ± 400 M⁻¹ s⁻¹, 3000 ± 500 M⁻¹ s⁻¹ and 9000 ± 800 M⁻¹ s⁻¹, respectively.

In assay [7], “human MYO6 motor domain (from UniProt Q9UM54 1-1294) (domain or fragment)” showed an in vitro motility assay: gliding velocity of rhodamine-phalloidin labelled actin filaments on surface-immobilised myosin of 55 nm/s. This molecule returned a Kd in assay [8] of 15 nM.
